In US20100261723A1, “TRISUBSTITUTED PYRIMIDINE DERIVATIVES FOR THE TREATMENT OF PROLIFERATIVE DISEASES” (ASTRAZENECA AB, priority 2007, published 2010):

Molecular target: T1, mTOR kinase (Homo sapiens, UniProt P42345)
T1 construct: FLAG; made in house
Assay: In vitro mTOR kinase assay, Test (a)(i) (AlphaScreen)
Format: biochemical
Details: recombinant FLAG-tagged mTOR (1362-2549), ATP 20 μM; read-out: Test (a)(i) IC50
Protocol: (a)(i) In Vitro mTOR Kinase Assay
A C-terminal truncation of mTOR encompassing amino acid residues 1362 to 2549 of mTOR (EMBL Accession No. L34075) was stably expressed as a FLAG-tagged fusion in HEK293 cells as described by Vilella-Bach et al., […], 1999, 274, 4266-4272. The HEK293 FLAG-tagged mTOR (1362-2549) stable cell line was routinely maintained at 37° C. with 5% CO2 up to a confluency of 70-90% in Dulbecco's modified Eagle's growth medium (DMEM; Invitrogen Limited, Paisley, UK Catalogue No. 41966-029) containing 10% heat-inactivated foetal calf serum (FCS; Sigma, Poole, Dorset, UK, Catalogue No. F0392), 1% L-glutamine (Gibco, Catalogue No. 25030-024) and 2 mg/ml Geneticin (G418 sulfate; Invitrogen Limited, UK Catalogue No. 10131-027). Following expression in the mammalian HEK293 cell line, expressed protein was purified using the FLAG epitope tag using standard purification techniques.
A 30 μl mixture of recombinant purified mTOR enzyme, 1 μM biotinylated peptide substrate (Biotin-Ahx-[…]NH2; Bachem UK Ltd), ATP (20 μM) and a buffer solution [comprising Tris-HCl pH7.4 buffer (50 mM), EGTA (0.1 mM), bovine serum albumin (0.5 mg/mL), DTT (1.25 mM) and manganese chloride (10 mM)] was agitated at room temperature for 90 minutes.
These assay solutions were incubated for 2 hours at room temperature.
Phosphorylated biotinylated peptide is formed in situ as a result of mTOR mediated phosphorylation. The phosphorylated biotinylated peptide that is associated with AlphaScreen Streptavidin donor beads forms a complex with the p70 S6 Kinase (T389) 1A5 Monoclonal Antibody that is associated with Alphascreen Protein A acceptor beads. […] Accordingly, the presence of mTOR kinase activity results in an assay signal. In the presence of an mTOR kinase inhibitor, signal strength is reduced.

T1 sequence (P42345 1362-2549): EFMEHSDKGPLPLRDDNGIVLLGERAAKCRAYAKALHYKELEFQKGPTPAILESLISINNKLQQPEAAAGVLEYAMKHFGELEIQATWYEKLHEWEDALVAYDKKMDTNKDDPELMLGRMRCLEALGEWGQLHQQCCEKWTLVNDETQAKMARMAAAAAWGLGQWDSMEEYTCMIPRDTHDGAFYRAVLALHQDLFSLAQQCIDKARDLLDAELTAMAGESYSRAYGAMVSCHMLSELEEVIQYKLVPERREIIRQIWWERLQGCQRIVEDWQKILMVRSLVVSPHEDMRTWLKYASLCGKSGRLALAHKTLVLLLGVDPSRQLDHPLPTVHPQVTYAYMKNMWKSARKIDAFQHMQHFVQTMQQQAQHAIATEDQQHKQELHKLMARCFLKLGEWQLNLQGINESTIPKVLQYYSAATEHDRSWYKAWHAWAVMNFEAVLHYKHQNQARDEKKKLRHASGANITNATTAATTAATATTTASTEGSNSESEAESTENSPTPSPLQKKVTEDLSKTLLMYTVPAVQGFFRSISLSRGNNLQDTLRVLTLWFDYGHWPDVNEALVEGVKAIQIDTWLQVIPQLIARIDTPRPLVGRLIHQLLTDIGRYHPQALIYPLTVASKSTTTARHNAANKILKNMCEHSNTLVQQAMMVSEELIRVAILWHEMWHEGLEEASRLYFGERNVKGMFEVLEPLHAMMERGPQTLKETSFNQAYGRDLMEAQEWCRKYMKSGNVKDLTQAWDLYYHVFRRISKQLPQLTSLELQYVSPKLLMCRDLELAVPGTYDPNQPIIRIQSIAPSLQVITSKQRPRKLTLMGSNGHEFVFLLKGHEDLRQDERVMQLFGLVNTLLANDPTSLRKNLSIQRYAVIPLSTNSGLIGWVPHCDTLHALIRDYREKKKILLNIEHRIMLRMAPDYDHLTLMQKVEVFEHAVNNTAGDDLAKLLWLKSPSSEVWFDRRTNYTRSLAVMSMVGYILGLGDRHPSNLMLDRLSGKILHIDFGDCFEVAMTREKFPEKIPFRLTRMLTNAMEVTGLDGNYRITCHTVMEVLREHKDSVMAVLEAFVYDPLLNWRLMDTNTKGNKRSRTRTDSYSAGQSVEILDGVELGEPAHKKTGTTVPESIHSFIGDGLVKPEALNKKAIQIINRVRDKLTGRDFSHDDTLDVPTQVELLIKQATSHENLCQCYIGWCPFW

Row | IC50 | SMILES
1 | 0.164 µM | CC(=O)Nc1ccc(-c2nc(CS(C)(=O)=O)cc(N3CCOCC3)n2)cc1CO [Example 1, N-[2-(Hydroxymethyl)-4-[4-(methylsulfonylmethyl)-6-morpholin-4-yl-pyrimidin-2-yl]phenyl]acetamide]
2 | 0.0909 µM | C[C@H]1COCCN1c1cc(CS(C)(=O)=O)nc(-c2ccc(NC(=O)c3ccno3)cc2)n1 [Example 2, N-[4-[4-[(3S)-3-Methylmorpholin-4-yl]-6-(methylsulfonylmethyl)pyrimidin-2-yl]phenyl]-1,2-oxazole-5-carboxamide]
3 | 0.238 µM | C[C@H]1COCCN1c1cc(CS(C)(=O)=O)nc(-c2ccc(NC(=O)CO)cc2)n1 [Example 3, 2-Hydroxy-N-[4-[4-[(3S)-3-methylmorpholin-4-yl]-6-(methylsulfonylmethyl)pyrimidin-2-yl]phenyl]acetamide]
4 | 0.93 µM | CC(=O)Nc1ccc(-c2nc(CS(C)(=O)=O)cc(N3CCOCC3)n2)cc1 [Example 4, N-[4-[4-(Methylsulfonylmethyl)-6-morpholin-4-yl-pyrimidin-2-yl]phenyl]acetamide]
5 | 15.3 µM | CS(=O)(=O)Cc1cc(N2CCOCC2)nc(-c2ccc(NC(=O)c3ccccc3)cc2)n1 [Example 4a, N-[4-[4-(methylsulfonylmethyl)-6-morpholin-4-yl-pyrimidin-2-yl]phenyl]benzamide]
6 | 1.17 µM | CS(=O)(=O)Cc1cc(N2CCOCC2)nc(-c2ccc(NC(=O)C3CCC3)cc2)n1 [Example 5, N-[4-[4-(Methylsulfonylmethyl)-6-morpholin-4-yl-pyrimidin-2-yl]phenyl]cyclobutanecarboxamide]
7 | 0.648 µM | CCC(=O)Nc1ccc(-c2nc(CS(C)(=O)=O)cc(N3CCOCC3)n2)cc1 [Example 5a, N-[4-[4-(methylsulfonylmethyl)-6-morpholin-4-yl-pyrimidin-2-yl]phenyl]propanamide]
8 | 4.99 µM | CS(=O)(=O)Cc1cc(N2CCOCC2)nc(-c2ccc(NC(=O)CCC3CC3)cc2)n1 [Example 5aa, 3-cyclopropyl-N-[4-[4-(methylsulfonylmethyl)-6-morpholin-4-yl-pyrimidin-2-yl]phenyl]propanamide]
9 | 6.59 µM | CS(=O)(=O)Cc1cc(N2CCOCC2)nc(-c2ccc(NC(=O)C3(C(N)=O)CC3)cc2)n1 [Example 5ab, N′-[4-[4-(methylsulfonylmethyl)-6-morpholin-4-yl-pyrimidin-2-yl]phenyl]cyclopropane-1,1-dicarboxamide]
10 | 5.38 µM | CS(=O)(=O)Cc1cc(N2CCOCC2)nc(-c2ccc(NC(=O)C3CCOCC3)cc2)n1 [Example 5ac, N-[4-[4-(methylsulfonylmethyl)-6-morpholin-4-yl-pyrimidin-2-yl]phenyl]oxane-4-carboxamide]
11 | 3.99 µM | CC(=O)NCCC(=O)Nc1ccc(-c2nc(CS(C)(=O)=O)cc(N3CCOCC3)n2)cc1 [Example 5ad, 3-acetamido-N-[4-[4-(methylsulfonylmethyl)-6-morpholin-4-yl-pyrimidin-2-yl]phenyl]propanamide]
12 | 1.81 µM | CS(=O)(=O)Cc1cc(N2CCOCC2)nc(-c2ccc(NC(=O)c3cc[nH]n3)cc2)n1 [Example 5ae, N-[4-[4-(methylsulfonylmethyl)-6-morpholin-4-yl-pyrimidin-2-yl]phenyl]-1H-pyrazole-3-carboxamide]
13 | 10 µM | Cc1cc(C(=O)Nc2ccc(-c3nc(CS(C)(=O)=O)cc(N4CCOCC4)n3)cc2)n(C)n1 [Example 5af, 2,5-dimethyl-N-[4-[4-(methylsulfonylmethyl)-6-morpholin-4-yl-pyrimidin-2-yl]phenyl]pyrazole-3-carboxamide]
14 | 2.76 µM | CS(=O)(=O)Cc1cc(N2CCOCC2)nc(-c2ccc(NC(=O)C3=COCCC3)cc2)n1 [Example 5ag, N-[4-[4-(methylsulfonylmethyl)-6-morpholin-4-yl-pyrimidin-2-yl]phenyl]-5,6-dihydro-4H-pyran-3-carboxamide]
15 | 2.75 µM | CS(=O)(=O)Cc1cc(N2CCOCC2)nc(-c2ccc(NC(=O)CCc3c[nH]cn3)cc2)n1 [Example 5ah, 3-(1H-imidazol-4-yl)-N-[4[4-(methylsulfonylmethyl)-6-morpholin-4-yl-pyrimidin-2-yl]phenyl]propanamide]
16 | 1.64 µM | CS(=O)(=O)Cc1cc(N2CCOCC2)nc(-c2ccc(NC(=O)Cc3ccco3)cc2)n1 [Example 5ai, 2-(2-furyl)-N-[4-[4-(methylsulfonylmethyl)-6-morpholin-4-yl-pyrimidin-2-yl]phenyl]acetamide]

Row | IC50 | SMILES
17 | 9.7 µM | CS(=O)(=O)Cc1cc(N2CCOCC2)nc(-c2ccc(NC(=O)CN3CCCC3=O)cc2)n1 [Example 5aj, N-[4-[4-(methylsulfonylmethyl)-6-morpholin-4-yl-pyrimidin-2-yl]phenyl]-2-(2-oxopyrrolidin-1-yl)acetamide]
18 | 7.79 µM | CS(=O)(=O)Cc1cc(N2CCOCC2)nc(-c2ccc(NC(=O)Cc3ncccn3)cc2)n1 [Example 5ak, N-[4-[4-(methylsulfonylmethyl)-6-morpholin-4-yl-pyrimidin-2-yl]phenyl]-2-pyrimidin-2-yl-acetamide]
19 | 3.96 µM | CC(C)(C(N)=O)C(=O)Nc1ccc(-c2nc(CS(C)(=O)=O)cc(N3CCOCC3)n2)cc1 [Example 5al, 2,2-dimethyl-N′-[4-[4-(methylsulfonylmethyl)-6-morpholin-4-yl-pyrimidin-2-yl]phenyl]propanediamide]
20 | 9.1 µM | CS(=O)(=O)Cc1cc(N2CCOCC2)nc(-c2ccc(NC(=O)CN3CCOCC3)cc2)n1 [Example 5am, N-[4-[4-(methylsulfonylmethyl)-6-morpholin-4-yl-pyrimidin-2-yl]phenyl]-2-morpholin-4-yl-acetamide]
21 | 29.7 µM | Cc1ccn(CC(=O)Nc2ccc(-c3nc(CS(C)(=O)=O)cc(N4CCOCC4)n3)cc2)n1 [Example 5an, 2-(3-methylpyrazol-1-yl)-N-[4-[4-(methylsulfonylmethyl)-6-morpholin-4-yl-pyrimidin-2-yl]phenyl]acetamide]
22 | 0.552 µM | CS(=O)(=O)Cc1cc(N2CCOCC2)nc(-c2ccc(NC(=O)c3cncs3)cc2)n1 [Example 5ao, N-[4-[4-(methylsulfonylmethyl)-6-morpholin-4-yl-pyrimidin-2-yl]phenyl]-1,3-thiazole-5-carboxamide]
23 | 32.6 µM | CO[C@H](C)C(=O)Nc1ccc(-c2nc(CS(C)(=O)=O)cc(N3CCOCC3)n2)cc1 [Example 5ap, (2R)-2-methoxy-N-[4-[4-(methylsulfonylmethyl)-6-morpholin-4-yl-pyrimidin-2-yl]phenyl]propanamide]
24 | 0.609 µM | CS(=O)(=O)Cc1cc(N2CCOCC2)nc(-c2ccc(NC(=O)CC(F)(F)F)cc2)n1 [Example 5aq, 3,3,3-trifluoro-N-[4-[4-(methylsulfonylmethyl)-6-morpholin-4-yl-pyrimidin-2-yl]phenyl]propanamide]
25 | 1.07 µM | CS(=O)(=O)Cc1cc(N2CCOCC2)nc(-c2ccc(NC(=O)C(F)F)cc2)n1 [Example 5ar, 2,2-difluoro-N-[4-[4-(methylsulfonylmethyl)-6-morpholin-4-yl-pyrimidin-2-yl]phenyl]acetamide]
26 | 0.36 µM | CS(=O)(=O)Cc1cc(N2CCOCC2)nc(-c2ccc(NC(=O)c3csnn3)cc2)n1 [Example 5as, N-[4-[4-(methylsulfonylmethyl)-6-morpholin-4-yl-pyrimidin-2-yl]phenyl]thiadiazole-4-carboxamide]
27 | 1.01 µM | CS(=O)(=O)Cc1cc(N2CCOCC2)nc(-c2ccc(NC(=O)C3(C#N)CC3)cc2)n1 [Example 5at, 1-cyano-N-[4-[4-(methylsulfonylmethyl)-6-morpholin-4-yl-pyrimidin-2-yl]phenyl]cyclopropane-1-carboxamide]
28 | 0.165 µM | CS(=O)(=O)Cc1cc(N2CCOCC2)nc(-c2ccc(NC(=O)CCC#N)cc2)n1 [Example 5au, 3-cyano-N-[4-[4-(methylsulfonylmethyl)-6-morpholin-4-yl-pyrimidin-2-yl]phenyl]propanamide]
29 | 0.669 µM | CCCC(=O)Nc1ccc(-c2nc(CS(C)(=O)=O)cc(N3CCOCC3)n2)cc1 [Example 5b, N-[4-[4-(methylsulfonylmethyl)-6-morpholin-4-yl-pyrimidin-2-yl]phenyl]butanamide]
30 | 1.37 µM | CC(=O)NCC(=O)Nc1ccc(-c2nc(CS(C)(=O)=O)cc(N3CCOCC3)n2)cc1 [Example 5c, N-[[4-[4-(methylsulfonylmethyl)-6-morpholin-4-yl-pyrimidin-2-yl]phenyl]carbamoylmethyl] acetamide]
31 | 7.17 µM | CC(=O)NC(C)C(=O)Nc1ccc(-c2nc(CS(C)(=O)=O)cc(N3CCOCC3)n2)cc1 (centres unmarked) [Example 5d, 2-acetamido-N-[4-[4-(methylsulfonylmethyl)-6-morpholin-4-yl-pyrimidin-2-yl]phenyl]propanamide]
32 | 1.77 µM | CS(=O)(=O)CC(=O)Nc1ccc(-c2nc(CS(C)(=O)=O)cc(N3CCOCC3)n2)cc1 [Example 5e, 2-methylsulfonyl-N-[4-[4-(methylsulfonylmethyl)-6-morpholin-4-yl-pyrimidin-2-yl]phenyl]acetamide]
